Key:
Xbp1 splicing = Xbp1 splicing (ER stress) by RT-PCR / Xbp1s level; type: cell-based, mouse
Protocol: We investigated another consequence of thapsigargin treatment, ER stress, for its possible association with NMD inhibition. Because thapsigargin-induced NMD inhibition occurred as early as 1 hour post-treatment, we examined cellular stress levels by measuring the splicing activity of X-box binding protein 1 (Xbp1). Xbp1 splicing rapidly responds to ER stress. As a part of the unfolded protein response (UPR) triggered by ER stress, the serine/threonine protein kinase/endoribonuclease inositol-requiring enzyme 1 (IRE1α) oligomerizes and activates its ribonuclease activity through trans-autophosphorylation (Rubio et al., 2011. J Cell Biol 193: 171-184; Samali et al., 2010. Int J Cell Biol 2010: 830307; van Schadewijk et al., 2012. Cell Stress Chaperones 17: 275-279; Hetz C. 2012. Nat Rev Mol Cell Biol 13: 89-102). Activated IRE1α excises a 26-nt intron of Xbp1 mRNA, resulting in a shorter isoform (Xbp1s) that encodes a potent transcriptional activator for the expression of chaperones. RT-PCR with primers flanking the 26-nt intron detected Xbp1 splicing at 1 hour after thapsigargin treatment (FIG. 3A). […] Since IRE1α is targeted by NMD (Karam et al., 2015. EMBO Rep 16: 599-609; Oren et al. 2014. EMBO Mol Med 6: 685-701), the Xbp1 intron excision could have been due to thapsigargin-induced NMD inhibition. […] Nevertheless, feedback between these two pathways may have occurred in the later phase (see below).
(§1) Neuro-2a (N2a) cells were maintained in N2a complete media consisting of L-glutamine-free Dulbecco's modified Eagle's medium (DMEM), 10% FBS and 1× GlutaMAX at 37° C. Thapsigargin (VWR, cat. no. 89161-410), ionomycin (Fisher Scientific, cat. no. AG-CN2-0416-M001) and ouabain octahydrate (Fisher Scientific, cat. no. 80055-364) were dissolved in DMSO and stored at −80° C. […]
Trizol (Life Technologies, cat. no. 15596-018) was directly added to the cells or mouse brain tissues to extract total RNA following the Trizol Reagent standard protocol. […] RNA concentrations were measured using a Nanodrop 2000c (Thermo Fisher). […]

Bip transcript = Bip transcript levels as reporter of ATF6α activity; type: cell-based, mouse
Text: Perk knockdown attenuated thapsigargin-induced Xpb1s (FIG. 4E) probably due to the restoration of NMD activity and because NMD inhibits IRE1α to splice Xbp1 (Oren et al. 2014. EMBO Mol Med 6: 685-701; Karam et al., 2015. EMBO Rep 16: 599-609). […] The Xbp1s level in the thapsigargin-treated siPerk cells was still 6 to 8 fold higher than in DMSO-treated cells, indicative of potent IRE1a activity. We also examined Bip transcript levels as a reporter of ATF6α activity (FIG. 4F). […] In summary, in PERK-deficient cells, thapsigargin continued to activate IREα and ATF6α but no longer inhibited NMD.
as §1
Trizol (Life Technologies, cat. no. 15596-018) was directly added to the cells or mouse brain tissues to extract total RNA following the Trizol Reagent standard protocol. […] RNA concentrations were measured using a Nanodrop 2000c (Thermo Fisher). […] Relative expression (fold changes) was calculated using the ΔΔCt method. […]

Structure (SMILES) | thapsigargin-induced Xbp1s (Xbp1 splicing; thapsigargin plus GSK2606414) | Bip transcripts (Bip transcript; thapsigargin plus GSK2606414) | time at which Xbp1 splicing was detected (Xbp1 splicing; 0.2 μM thapsigargin, N2a cells) [h] | concentration at which Xbp1 intron excision occurred (Xbp1 splicing; N2a cells, 5 hours post-treatment) [µM] | Bip transcript levels (Bip transcript; thapsigargin treatment, maintained with siPerk)
Cn1cc(-c2ccc3c(c2)CCN3C(=O)Cc2cccc(C(F)(F)F)c2)c2c(N)ncnc21 [GSK2606414] | attenuating | did not down-regulate |  |  | 
C/C=C(/C)C(=O)O[C@H]1C(C)=C2[C@H]([C@@H]1OC(=O)CCCCCCC)[C@@](C)(OC(C)=O)C[C@H](OC(=O)CCC)[C@@]1(O)[C@H]2OC(=O)[C@@]1(C)O [thapsigargin] |  |  | 1 | 0.01 | significantly boosted

— US20180010188A1, “METHOD FOR DETECTING NONSENSE-MEDIATED RNA DECAY” (The Regents of the University of California, priority 2016, published 2018)
